{"source": "patent US3930838A", "about": "“S-benzyl-N,N-disec-butylthiocarbamate and its use as a rice field herbicide and a rice growth stimulant” (priority 1970, dated 1976)", "key": {"[1]": {"tested_on": "Alisma sp.", "experiment": "Outdoor infestation degree in rice plots (Example 15)", "format": "in vivo", "details": "4 kg./ha., 36 days", "protocol": "(§1) In the province of Novara, Italy, a test was performed outdoors in clay soil. For each treatment, a 600 m^2 plot provided with independent water feed was prepared. After soil working and leveling, the treatment was effected on Apr. 23, 1970, using formulations in emulsifiable oils of M3432 and of molinate, sprayed by means of mechanical devices. Only the plot treated with molinate was harrowed just after treatment in order to incorporate the product and to avoid any losses of same due to volatilization. Immediately afterwards, the plots were flooded to a water level of 10-12 cm.\n(§2) A clear confirmation of the efficiency of M3432 towards Echinocloa spp. was obtained outdoors, where the test was carried out under conditions which are characteristic of Italian rice growing. The experimental conditions are described in Example 10."}, "[2]": {"tested_on": "Echinocloa spp.", "experiment": "Outdoor infestation degree in rice plots (Example 15)", "format": "in vivo", "details": "4 kg./ha.", "protocol": "as §1, §2"}, "[3]": {"tested_on": "Scirpus sp.", "experiment": "Outdoor infestation degree in rice plots (Example 15)", "format": "in vivo", "details": "4 kg./ha., 36 days", "protocol": "as §1, §2"}, "[4]": {"tested_on": "Dactylis glomerata", "experiment": "Weeding activity in screening conditions (Example 12)", "format": "in vivo", "details": "25 days", "source_text": "(§3) Two sets of small square tanks having 11 cm. sides, filled with field earth admixed with 30% of sand, were sowed at a depth of 0.5-1 cm. with the following grass species: Echinocloa crus galli, Setaria italica, Alopecurus myosiuroides, Lolium italicum, Digitaria sanguinalis, Avena fatua, Agrostis segetum, and Dactylis glomerata. After sowing, the earth surface of the tanks was uniformly sprayed with 2.4 cc./tank of hydroacetone solutions containing, respectively, 0, 0.05, 0.10, 0.20 and 0.30% of M3432 and of molinate, respectively, in order to obtain doses thereof corresponding to 0, 1, 2, 4, and 6 kg./ha., respectively.\n(§4) Only one set of small tanks was covered with a 1 cm. layer of earth just after the treatment. All of the tanks were kept in an air-conditioned chamber identical with that described in Example 7, and were watered every day. 25 days after the treatment, the final results were examined, attributing to each treatment the following scale of values: […]"}, "[5]": {"tested_on": "Setaria italica", "experiment": "Weeding activity in screening conditions (Example 12)", "format": "in vivo", "details": "25 days", "source_text": "as §3, §4"}, "[6]": {"tested_on": "Rice plants", "experiment": "Open field test on rice, periodical checks of the plots (Example 10)", "format": "in vivo, rice cv. RIBE", "details": "4 kg./ha., two months", "protocol": "as §1\n(§5) Pre-germinated cv. RIBE rice was mechanically sowed broadcast on Apr. 25, 1970.\nPeriodical checks were carried out on the four plots. […]"}, "[7]": {"tested_on": "Avena fatua", "experiment": "Weeding activity in screening conditions (Example 12)", "format": "in vivo", "details": "25 days", "source_text": "as §3, §4"}, "[8]": {"tested_on": "Alopecurus myosiuroides", "experiment": "Weeding activity in screening conditions (Example 12)", "format": "in vivo", "details": "25 days", "source_text": "as §3, §4"}, "[9]": {"tested_on": "Digitaria sanguinalis", "experiment": "Weeding activity in screening conditions (Example 12)", "format": "in vivo", "details": "25 days", "source_text": "as §3, §4"}, "[10]": {"tested_on": "Lolium italicum", "experiment": "Weeding activity in screening conditions (Example 12)", "format": "in vivo", "details": "25 days", "source_text": "as §3, §4"}, "[11]": {"tested_on": "Agrostis segetum", "experiment": "Weeding activity in screening conditions (Example 12)", "format": "in vivo", "details": "25 days", "source_text": "as §3, §4"}, "[12]": {"tested_on": "rice", "experiment": "Open field test on rice, biometric controls (Example 10)", "format": "in vivo, rice cv. RIBE", "details": "4 kg./ha., 36 days", "protocol": "as §1, §5\n36 Days after the treatment, 50 rice plants were taken at random from each plot and subjected to biometric controls."}, "[13]": {"tested_on": "Echinocloa spp.", "experiment": "Pre-emergence activity on Echinocloa in flooded cultures, pots (Example 13)", "format": "in vivo", "details": "Test No. 1, hydroacetone solution, 4 kg./ha., 22 days", "protocol": "Into a set of cylindrical pots having a 200 cm^2 internal surface, sieved rice field earth in a quantity of 1 kg. per pot was introduced. After leveling and wetting with 200 cc. of water, the earth surface of the pots was uniformly sprayed with hydroacetone solutions containing, respectively, 0, 0.2, 0.3, and 0.4% active product (a.p.). 4 Ml. of the solution were sprayed onto each pot, so that the amount of active product in a set of four pots was 0, 4, 6, and 8 kg./ha., respectively. Immediately after spraying, each pot was filled with water to a level of 7 cm. over the soil surface. Thereafter, the sowing was carried out at the rate of 15 pre-germinated rice seeds per pot. Three repetitions were performed for each treatment. The pots were kept in an air-conditioned atmosphere with a daily temperature variation between 10° and 25°C and a 14 hour per day light period. […]\nThe same method described in Example 7 was adopted, the only variations being the doses (0, 0.5, 1, 2 and 4 kg./ha.). the type of formulation and the sowing of Echinocloa spp. (25 slightly pre-germinated seeds per pot) instead of rice."}, "[14]": {"details": "Treated surface covered with 1 cm earth layer, 2 kg./ha."}, "[15]": {"details": "Treated surface covered with 1 cm earth layer, 4 kg./ha."}, "[16]": {"details": "Treated surface covered with 1 cm earth layer, 6 kg./ha."}}, "data": [{"smiles": "CCSC(=O)N1CCCCCC1", "note": "[Molinate, ethyl-1-hexamethylene-imino-carbothiolate, reference compound]", "values": [{"measurement": "Infestation degree", "setting": "[1]", "value": "moderate (moderate = 1 - 4 plants per m^2)"}, {"measurement": "Infestation degree, plants per 10 square meters", "setting": "[2]; 2 months", "value": "1-2 no."}, {"measurement": "Infestation degree", "setting": "[2]; 36 days", "value": "almost nil (almost nil = 0.1 plants per m^2)"}, {"measurement": "Infestation degree", "setting": "[3]", "value": "moderate (moderate = 1 - 4 plants per m^2)"}, {"measurement": "Weeding activity", "setting": "[4]; Surface, 2 kg./ha.", "value": "1/2"}, {"measurement": "Weeding activity", "setting": "[4]; Surface, 4 kg./ha.", "value": "1/2"}, {"measurement": "Weeding activity", "setting": "[4]; Surface, 6 kg./ha.", "value": 3}, {"measurement": "Weeding activity", "setting": "[4]; [14]", "value": 3}, {"measurement": "Weeding activity", "setting": "[4]; [15]", "value": "4/3"}, {"measurement": "Weeding activity", "setting": "[4]; [16]", "value": "4/3"}, {"measurement": "Weeding activity", "setting": "[5]; Surface, 2 kg./ha.", "value": "0/1"}, {"measurement": "Weeding activity", "setting": "[5]; Surface, 4 kg./ha.", "value": "0/1"}, {"measurement": "Weeding activity", "setting": "[5]; Surface, 6 kg./ha.", "value": "0/1"}, {"measurement": "Weeding activity", "setting": "[5]; [14]", "value": 3}, {"measurement": "Weeding activity", "setting": "[5]; [15]", "value": 3}, {"measurement": "Weeding activity", "setting": "[5]; [16]", "value": 3}, {"measurement": "Average height", "setting": "[6]", "value": "35-45 cm."}, {"measurement": "Rice plants appearance", "setting": "[6]", "value": "normal"}, {"measurement": "Stand (number of tillers per unit of area)", "setting": "[6]", "value": "normal"}, {"measurement": "Weeding activity", "setting": "[7]; Surface, 2 kg./ha.", "value": 1}, {"measurement": "Weeding activity", "setting": "[7]; Surface, 4 kg./ha.", "value": "3/2"}, {"measurement": "Weeding activity", "setting": "[7]; Surface, 6 kg./ha.", "value": "4/3"}, {"measurement": "Weeding activity", "setting": "[7]; [14]", "value": 4}, {"measurement": "Weeding activity", "setting": "[7]; [15]", "value": 4}, {"measurement": "Weeding activity", "setting": "[7]; [16]", "value": 4}, {"measurement": "Weeding activity", "setting": "[8]; Surface, 2 kg./ha.", "value": "1/2"}, {"measurement": "Weeding activity", "setting": "[8]; Surface, 4 kg./ha.", "value": 2}, {"measurement": "Weeding activity", "setting": "[8]; Surface, 6 kg./ha.", "value": 3}, {"measurement": "Weeding activity", "setting": "[8]; [14]", "value": 3}, {"measurement": "Weeding activity", "setting": "[8]; [15]", "value": "4/3"}, {"measurement": "Weeding activity", "setting": "[8]; [16]", "value": "4/3"}, {"measurement": "Weeding activity", "setting": "[9]; Surface, 2 kg./ha.", "value": 0}, {"measurement": "Weeding activity", "setting": "[9]; Surface, 4 kg./ha.", "value": "3/4"}, {"measurement": "Weeding activity", "setting": "[9]; Surface, 6 kg./ha.", "value": 4}, {"measurement": "Weeding activity", "setting": "[9]; [14]", "value": 4}, {"measurement": "Weeding activity", "setting": "[9]; [15]", "value": 4}, {"measurement": "Weeding activity", "setting": "[9]; [16]", "value": 4}, {"measurement": "Weeding activity", "setting": "[10]; Surface, 2 kg./ha.", "value": "0/1"}, {"measurement": "Weeding activity", "setting": "[10]; Surface, 4 kg./ha.", "value": 2}, {"measurement": "Weeding activity", "setting": "[10]; Surface, 6 kg./ha.", "value": "2/3"}, {"measurement": "Weeding activity", "setting": "[10]; [14]", "value": "3/2"}, {"measurement": "Weeding activity", "setting": "[10]; [15]", "value": "3/4"}, {"measurement": "Weeding activity", "setting": "[10]; [16]", "value": 4}, {"measurement": "Weeding activity", "setting": "[11]; Surface, 2 kg./ha.", "value": 2}, {"measurement": "Weeding activity", "setting": "[11]; Surface, 4 kg./ha.", "value": 4}, {"measurement": "Weeding activity", "setting": "[11]; Surface, 6 kg./ha.", "value": 4}, {"measurement": "Weeding activity", "setting": "[11]; [14]", "value": 4}, {"measurement": "Weeding activity", "setting": "[11]; [15]", "value": 4}, {"measurement": "Weeding activity", "setting": "[11]; [16]", "value": 4}, {"measurement": "Main root", "setting": "[12]", "value": 7.67, "unit": "cm."}, {"measurement": "Roots, average weight per plant on dry basis", "setting": "[12]", "value": 1.866, "unit": "g"}, {"measurement": "Secondary roots", "setting": "[12]", "value": 9.06, "unit": "no."}, {"measurement": "Shoot", "setting": "[12]", "value": 25.72, "unit": "cm."}, {"measurement": "Shoot, average weight per plant on dry basis", "setting": "[12]", "value": 3.257, "unit": "g"}, {"measurement": "Total, average weight per plant on dry basis", "setting": "[12]", "value": 5.123, "unit": "g"}, {"measurement": "Main root", "setting": "[13]", "value": 0, "unit": "cm."}, {"measurement": "Shoot", "setting": "[13]", "value": 0, "unit": "cm."}, {"measurement": "Stand (Sprouted plants)", "setting": "[13]", "value": 0, "unit": "%"}]}]}
